Earlier results in paper PMC4195943, “A novel small-molecule MRCK inhibitor blocks cancer cell invasion” (Cell Communication and Signaling : CCS, 2014).
pIC50: −log10 of the molar value.

Assays:
[1] = biological target: MRCKα (Homo sapiens, UniProt Q5VT25); parameters: method as in PMID 21457715; conditions: read-out: in vitro IC50, MRCKα; cited from earlier work
[2] = biological target: Protein Kinase C; parameters: method as in PMID 2244923; conditions: read-out: in vitro IC50, Protein Kinase C; cited from earlier work

Chain of MRCKα (Q5VT25 whole entry): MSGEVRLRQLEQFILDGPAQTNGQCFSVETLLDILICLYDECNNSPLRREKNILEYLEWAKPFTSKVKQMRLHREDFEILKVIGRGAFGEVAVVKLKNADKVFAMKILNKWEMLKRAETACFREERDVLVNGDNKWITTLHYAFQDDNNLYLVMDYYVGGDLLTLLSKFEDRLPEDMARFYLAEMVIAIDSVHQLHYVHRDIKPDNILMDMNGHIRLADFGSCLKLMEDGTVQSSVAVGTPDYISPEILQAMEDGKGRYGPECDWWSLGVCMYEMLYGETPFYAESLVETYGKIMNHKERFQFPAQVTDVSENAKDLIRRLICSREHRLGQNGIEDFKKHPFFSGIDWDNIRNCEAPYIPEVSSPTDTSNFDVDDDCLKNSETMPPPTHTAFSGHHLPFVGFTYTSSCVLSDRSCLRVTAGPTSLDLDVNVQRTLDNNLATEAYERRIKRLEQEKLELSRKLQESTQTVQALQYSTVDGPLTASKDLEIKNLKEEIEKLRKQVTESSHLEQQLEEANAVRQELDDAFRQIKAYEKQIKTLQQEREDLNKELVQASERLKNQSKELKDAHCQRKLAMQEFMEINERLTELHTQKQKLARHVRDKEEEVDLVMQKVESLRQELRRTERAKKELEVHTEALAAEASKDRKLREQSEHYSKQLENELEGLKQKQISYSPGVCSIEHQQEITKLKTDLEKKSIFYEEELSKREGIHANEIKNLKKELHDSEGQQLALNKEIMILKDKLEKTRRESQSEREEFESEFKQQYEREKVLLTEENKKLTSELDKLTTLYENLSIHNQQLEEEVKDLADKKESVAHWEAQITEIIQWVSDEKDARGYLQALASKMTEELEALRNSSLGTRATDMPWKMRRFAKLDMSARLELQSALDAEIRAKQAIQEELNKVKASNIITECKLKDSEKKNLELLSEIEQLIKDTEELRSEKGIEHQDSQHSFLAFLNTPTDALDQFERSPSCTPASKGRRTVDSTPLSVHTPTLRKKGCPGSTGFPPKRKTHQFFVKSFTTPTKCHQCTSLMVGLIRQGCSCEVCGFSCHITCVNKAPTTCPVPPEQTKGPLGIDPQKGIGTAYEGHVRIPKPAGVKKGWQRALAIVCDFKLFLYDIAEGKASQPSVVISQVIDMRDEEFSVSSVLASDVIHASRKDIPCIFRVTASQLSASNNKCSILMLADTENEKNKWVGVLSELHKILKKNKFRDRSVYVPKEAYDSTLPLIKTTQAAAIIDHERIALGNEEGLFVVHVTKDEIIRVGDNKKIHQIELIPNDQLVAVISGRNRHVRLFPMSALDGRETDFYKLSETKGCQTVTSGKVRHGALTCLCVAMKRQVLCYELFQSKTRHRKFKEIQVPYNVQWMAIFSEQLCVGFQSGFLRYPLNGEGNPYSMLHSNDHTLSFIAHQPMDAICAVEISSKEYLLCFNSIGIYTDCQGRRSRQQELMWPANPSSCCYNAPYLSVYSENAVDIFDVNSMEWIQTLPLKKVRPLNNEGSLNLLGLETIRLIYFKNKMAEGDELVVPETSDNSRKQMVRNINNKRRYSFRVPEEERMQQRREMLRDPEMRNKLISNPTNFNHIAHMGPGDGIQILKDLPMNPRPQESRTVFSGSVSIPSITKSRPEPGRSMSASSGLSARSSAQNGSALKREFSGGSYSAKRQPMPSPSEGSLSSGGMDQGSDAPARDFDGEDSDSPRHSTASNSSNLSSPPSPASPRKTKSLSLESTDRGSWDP

## COc1ccc2c(c[n+](C)c3c4cc5c(cc4ccc23)OCO5)c1OC [Chelerythrine]
[1]
  pIC50: 5.75
[2]
  pIC50: 6.18
